Source: patent US20240336620A1, “PROTEIN D[…] AND METHODS OF USE” (AnHorn Medicines Co., Ltd., priority 2022, published 2024)

What follows are molecules tested against T1, androgen receptor (Homo sapiens, UniProt P10275, T878A) (assay: Androgen receptor degradation assay using Western blot analysis). Conditions: LNCaP·FGC cells, concentration needed for 50% AR degradation, serial dilutions.
T1 construct: host or cells: LNCaP·FGC cells
T1 sequence (P10275 1-920 T878A): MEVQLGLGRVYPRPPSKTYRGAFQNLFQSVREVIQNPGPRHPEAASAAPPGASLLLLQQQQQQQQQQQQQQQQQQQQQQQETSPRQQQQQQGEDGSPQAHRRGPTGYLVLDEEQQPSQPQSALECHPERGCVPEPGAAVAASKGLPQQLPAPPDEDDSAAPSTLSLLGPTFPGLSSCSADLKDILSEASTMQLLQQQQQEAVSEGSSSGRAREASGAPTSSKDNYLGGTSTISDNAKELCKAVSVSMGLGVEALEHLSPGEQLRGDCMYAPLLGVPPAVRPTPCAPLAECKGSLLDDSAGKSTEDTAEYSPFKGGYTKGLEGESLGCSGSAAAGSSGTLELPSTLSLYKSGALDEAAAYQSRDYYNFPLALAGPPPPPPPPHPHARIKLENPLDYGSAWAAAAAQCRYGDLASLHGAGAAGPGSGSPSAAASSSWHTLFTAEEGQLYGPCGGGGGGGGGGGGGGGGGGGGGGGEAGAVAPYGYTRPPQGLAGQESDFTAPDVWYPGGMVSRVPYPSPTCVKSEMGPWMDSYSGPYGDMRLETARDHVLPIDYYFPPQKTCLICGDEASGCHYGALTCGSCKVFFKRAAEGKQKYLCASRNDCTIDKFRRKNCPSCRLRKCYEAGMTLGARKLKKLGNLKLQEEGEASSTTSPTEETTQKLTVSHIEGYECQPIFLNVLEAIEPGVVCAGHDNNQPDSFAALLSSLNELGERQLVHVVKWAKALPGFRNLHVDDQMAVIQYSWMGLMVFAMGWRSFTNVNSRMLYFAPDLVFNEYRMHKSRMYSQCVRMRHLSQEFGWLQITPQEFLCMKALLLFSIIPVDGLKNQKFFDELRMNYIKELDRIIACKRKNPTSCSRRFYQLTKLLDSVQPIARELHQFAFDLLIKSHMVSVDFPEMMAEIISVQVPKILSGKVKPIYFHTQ
Assay type: cell-based
Experimental: LNCaP·FGC cells (Cat. 60088, Bioresource Collection and Research Center, 15 HsinChu City, Taiwan R.O.C.) grown in RPMI 1640 (Cat. 31800022, Thermo Fisher Scientific, Waltham, Massachusetts, United States) medium supplemented with 10% FBS (Cat. 10437028, Thermo Fisher Scientific, Waltham, Massachusetts, United States), 10 mM HEPES (Cat. 15630080, Thermo Fisher Scientific, Waltham, Massachusetts, United States) and 1 mM sodium pyruvate (Cat. 11360070, Thermo 20 Fisher Scientific, Waltham, Massachusetts, United States) were seeded at 2×10^5 cells per well in 24-well tissue culture plates. […] After the treatment, the cells were harvested, washed by PBS, and lysed with RIPA lysis and extraction buffer (Cat. 25 89900, Thermo Fisher Scientific, Waltham, Massachusetts, United States) supplemented with Halt Protease Inhibitor Cocktail (Cat. 78430, Thermo Fisher Scientific, Waltham, Massachusetts, United States) to collect protein samples. Cells not treated with any of the above-mentioned compounds are used as a negative control.
The protein samples were separated by polyacrylamide gel electrophoresis, and then transferred to a piece of Immuno-Blot PVDF membrane (Cat. 1620177, Bio-Rad Laboratories, Hercules, California, United States). The presence of androgen receptor in the protein samples was detected by standard Western blotting procedure using an anti-AR antibody (1:2000 dilution) (Cat. 5153, Cell Signaling Technology Inc., Danvers, Massachusetts, United States) and a goat anti-rabbit HRP-conjugated secondary antibody (1:5000 dilution) (C04003, Croyez Bioscience Co., Ltd., Taipei City, Taiwan R.O.C.). The internal loading control GAPDH was detected using a mouse monoclonal antibody (1:5000) (GTX627408, GeneTex International Corp., HsinChu City, Taiwan R.O.C.) and a goat anti-mouse HRP-conjugated secondary antibody (1:5000 dilution) (C04001, Croyez Bioscience Co., Ltd., Taipei City, Taiwan R.O.C.). Chemiluminescence signals were developed using Clarity Western ECL substrate (Cat. 1705061, Bio-Rad Laboratories, Hercules, California, United States) and detected with digital imager iBright FL1500 (Invitrogen Corp., Carlsbad, California, United States).
Compounds 1-16 were selected and serial diluted (1Ox) with RPMI medium for treating LNCaP·FGC cells. A calibration curve was determined by the serial diluted samples for each compound, and the concentration needed for 50% AR degradation (AR DC50) for each compound was calculated. “Cpd. ID” indicates the compound ID number in Table 1.
In the case of `Cn1c2c(c3ccc(N4CCN(CC5CN(c6ccc(-c7ccc8c(c7)C(C)(C)C(=O)N8c7ccc(C#N)c(Cl)c7)c(F)n6)C5)CC4)cc31)C(=O)N(C1CCC(=O)NC1=O)C2=O` (stereo not shown) [Compound 1], the DC50 is reported as 200 to 1000 nM. In the case of `Cn1c2c(c3ccc(N4CCN(CC5CCN(c6ccc(-c7ccc8c(c7)C(C)(C)C(=O)N8c7ccc(C#N)c(Cl)c7)c(F)n6)CC5)CC4)cc31)C(=O)N(C1CCC(=O)NC1=O)C2=O` (stereo not shown) [Compound 5], the DC50 is reported as no less than 1000 nM. `CCn1c2c(c3ccc(N4CCN(CC5CN(c6ccc(-c7ccc8c(c7)C(C)(C)C(=O)N8c7ccc(C#N)c(Cl)c7)c(F)n6)C5)CC4)cc31)C(=O)N(C1CCC(=O)NC1=O)C2=O` (stereo not shown) [Compound 12] gave a DC50 of less than 200 nM. In the case of `Cn1c2c(c3ccc(C4CCN(CC5CCN(c6ccc(-c7ccc8c(c7)C(C)(C)C(=O)N8c7ccc(C#N)c(Cl)c7)c(F)n6)CC5)CC4)cc31)C(=O)N(C1CCC(=O)NC1=O)C2=O` (stereo not shown) [Compound 8], the DC50 is reported as 200 to 1000 nM. `CCn1c2c(c3ccc(OCCCN4CCN(c5ccc(-c6ccc7c(c6)C(C)(C)C(=O)N7c6ccc(C#N)c(Cl)c6)c(F)n5)CC4)cc31)C(=O)N(C1CCC(=O)NC1=O)C2=O` (stereo not shown) [Compound 4] gave a DC50 of 200 to 1000 nM. For `CCn1c2c(c3ccc(N4CCN(CC5CCN(c6ccc(-c7ccc8c(c7)C(C)(C)C(=O)N8c7ccc(C#N)c(Cl)c7)c(F)n6)CC5)CC4)cc31)C(=O)N(C1CCC(=O)NC1=O)C2=O` (stereo not shown) [Compound 9], the DC50 was 200 to 1000 nM. In the case of `Cn1c2c(c3ccc(N4CCN(CC5CCN(c6ccc(-c7ccc8c(c7)C(C)(C)C(=O)N8c7ccc(C#N)c(Cl)c7)nn6)CC5)CC4)cc31)C(=O)N(C1CCC(=O)NC1=O)C2=O` (stereo not shown) [Compound 11], the DC50 is reported as no less than 1000 nM. `Cn1c2c(c3ccc(OC4CCN(CC5CN(c6ccc(-c7ccc8c(c7)C(C)(C)C(=O)N8c7ccc(C#N)c(Cl)c7)c(F)n6)C5)CC4)cc31)C(=O)N(C1CCC(=O)NC1=O)C2=O` (stereo not shown) [Compound 2] showed a DC50 of no less than 1000 nM. `CCn1c2c(c3ccc(C4CCN(CC5CN(c6ccc(-c7ccc8c(c7)C(C)(C)C(=O)N8c7ccc(C#N)c(Cl)c7)c(F)n6)C5)CC4)cc31)C(=O)N(C1CCC(=O)NC1=O)C2=O` (stereo not shown) [Compound 3] showed a DC50 of 200 to 1000 nM. Work on `CCn1c2c(c3ccc(OCCN4CCN(c5ccc(-c6ccc7c(c6)C(C)(C)C(=O)N7c6ccc(C#N)c(Cl)c6)c(F)n5)CC4)cc31)C(=O)N(C1CCC(=O)NC1=O)C2=O` (stereo not shown) [Compound 15] yielded a DC50 of 200 to 1000 nM.
